Patent publication US12227500B2, “Substituted pyrrolo[2,3-b]pyridines for suppressing toxic endoplasmic reticulum stress” (THE TRUSTEES OF COLUMBIA UNIVERSITY IN THE CITY OF NEW YORK, priority 2018, dated 2025)
Where two headings read alike, the source gives them in different places.

Legend:
Assay in all cases: Radiolabeled ATP kinase assay, panel of 60 kinases (Table S5)
Type in all cases: biochemical
[1] = biological target: T1, panel of 60 human kinases (Homo sapiens, UniProt P45983); conditions: JNK1; 0.1 μM; 10 μM ATP; read-out: % Enzyme Activity (relative to DSMO controls)
T1 construct: purchased Reaction Biology Corp
T1 sequence (P45983 whole entry): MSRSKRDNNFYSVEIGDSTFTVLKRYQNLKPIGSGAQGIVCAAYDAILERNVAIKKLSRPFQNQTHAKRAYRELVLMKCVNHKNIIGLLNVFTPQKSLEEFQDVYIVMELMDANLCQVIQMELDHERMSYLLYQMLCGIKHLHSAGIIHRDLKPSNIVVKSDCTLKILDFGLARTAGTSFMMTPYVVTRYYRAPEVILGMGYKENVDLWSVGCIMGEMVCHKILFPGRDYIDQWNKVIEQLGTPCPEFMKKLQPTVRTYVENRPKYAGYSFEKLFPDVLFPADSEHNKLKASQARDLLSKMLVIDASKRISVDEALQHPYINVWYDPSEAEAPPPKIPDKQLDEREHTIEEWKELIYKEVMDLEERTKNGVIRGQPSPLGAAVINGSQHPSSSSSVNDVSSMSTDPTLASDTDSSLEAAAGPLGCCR
In short: (§1)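 Compounds at two concentrations, 0.1 μM and 0.5 μM, were screened for inhibition of 60 kinases in cell-free assays read out by radiolabeled ATP.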

[2] = biological target: T2, panel of 60 human kinases (Homo sapiens, UniProt P11362); conditions: FGFR1; 0.1 μM; 10 μM ATP; read-out: % Enzyme Activity (relative to DSMO controls)
T2 construct: purchased Reaction Biology Corp
T2 sequence (P11362 22-822): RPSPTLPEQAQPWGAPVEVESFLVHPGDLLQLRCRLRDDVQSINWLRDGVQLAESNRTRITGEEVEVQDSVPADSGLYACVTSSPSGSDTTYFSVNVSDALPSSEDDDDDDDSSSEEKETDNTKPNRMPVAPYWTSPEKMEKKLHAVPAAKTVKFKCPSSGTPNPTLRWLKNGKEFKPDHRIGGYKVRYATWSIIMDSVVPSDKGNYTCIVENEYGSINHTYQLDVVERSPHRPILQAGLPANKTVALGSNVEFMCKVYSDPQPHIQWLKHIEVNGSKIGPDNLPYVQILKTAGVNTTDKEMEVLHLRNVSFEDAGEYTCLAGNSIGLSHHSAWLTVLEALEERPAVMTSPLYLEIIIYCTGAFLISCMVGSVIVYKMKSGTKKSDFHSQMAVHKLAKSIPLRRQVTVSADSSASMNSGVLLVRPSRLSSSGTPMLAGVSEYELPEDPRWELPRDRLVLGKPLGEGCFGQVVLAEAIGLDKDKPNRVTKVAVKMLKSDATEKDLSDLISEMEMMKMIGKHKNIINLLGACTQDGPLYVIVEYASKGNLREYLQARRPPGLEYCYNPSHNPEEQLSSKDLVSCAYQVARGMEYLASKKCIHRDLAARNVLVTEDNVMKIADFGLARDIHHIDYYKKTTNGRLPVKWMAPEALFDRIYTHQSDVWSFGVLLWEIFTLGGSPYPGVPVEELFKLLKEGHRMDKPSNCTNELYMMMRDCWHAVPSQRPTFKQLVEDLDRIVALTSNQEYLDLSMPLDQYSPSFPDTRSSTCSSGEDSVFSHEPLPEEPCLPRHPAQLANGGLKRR
In short: as §1

[3] = biological target: T3, panel of 60 human kinases (Homo sapiens, UniProt P53778); conditions: P38g; 0.1 μM; 10 μM ATP; read-out: % Enzyme Activity (relative to DSMO controls)
T3 construct: purchased Reaction Biology Corp
T3 sequence (P53778 1-367): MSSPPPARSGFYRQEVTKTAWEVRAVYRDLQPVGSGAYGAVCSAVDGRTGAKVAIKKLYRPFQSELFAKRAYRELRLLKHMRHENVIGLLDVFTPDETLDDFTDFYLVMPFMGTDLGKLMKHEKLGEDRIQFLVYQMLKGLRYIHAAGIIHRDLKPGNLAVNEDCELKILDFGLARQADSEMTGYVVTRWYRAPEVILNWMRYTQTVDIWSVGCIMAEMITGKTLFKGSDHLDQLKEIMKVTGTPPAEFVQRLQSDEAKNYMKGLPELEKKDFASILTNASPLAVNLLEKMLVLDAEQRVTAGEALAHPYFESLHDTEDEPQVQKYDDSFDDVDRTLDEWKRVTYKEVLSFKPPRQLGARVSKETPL
In short: as §1

[4] = biological target: T4, panel of 60 human kinases (Homo sapiens, UniProt Q00534); conditions: 0.1 μM, 10 μM ATP, read-out: % Enzyme Activity (relative to DSMO controls)
T4 construct: purchased Reaction Biology Corp
T4 sequence (Q00534 whole entry): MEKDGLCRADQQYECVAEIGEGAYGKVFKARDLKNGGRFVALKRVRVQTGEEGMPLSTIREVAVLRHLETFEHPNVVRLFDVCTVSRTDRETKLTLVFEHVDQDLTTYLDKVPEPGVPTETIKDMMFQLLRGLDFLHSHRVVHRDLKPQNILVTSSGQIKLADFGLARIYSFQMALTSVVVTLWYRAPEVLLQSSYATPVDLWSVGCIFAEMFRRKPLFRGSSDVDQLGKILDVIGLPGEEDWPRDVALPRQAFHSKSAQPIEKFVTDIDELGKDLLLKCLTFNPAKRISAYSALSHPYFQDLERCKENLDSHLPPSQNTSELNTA
In short: as §1

[5] = biological target: T5, panel of 60 human kinases (Homo sapiens, UniProt O94806); conditions: PKCnu/PRKD3; 0.1 μM; 10 μM ATP; read-out: % Enzyme Activity (relative to DSMO controls)
T5 construct: purchased Reaction Biology Corp
T5 sequence (O94806 1-890): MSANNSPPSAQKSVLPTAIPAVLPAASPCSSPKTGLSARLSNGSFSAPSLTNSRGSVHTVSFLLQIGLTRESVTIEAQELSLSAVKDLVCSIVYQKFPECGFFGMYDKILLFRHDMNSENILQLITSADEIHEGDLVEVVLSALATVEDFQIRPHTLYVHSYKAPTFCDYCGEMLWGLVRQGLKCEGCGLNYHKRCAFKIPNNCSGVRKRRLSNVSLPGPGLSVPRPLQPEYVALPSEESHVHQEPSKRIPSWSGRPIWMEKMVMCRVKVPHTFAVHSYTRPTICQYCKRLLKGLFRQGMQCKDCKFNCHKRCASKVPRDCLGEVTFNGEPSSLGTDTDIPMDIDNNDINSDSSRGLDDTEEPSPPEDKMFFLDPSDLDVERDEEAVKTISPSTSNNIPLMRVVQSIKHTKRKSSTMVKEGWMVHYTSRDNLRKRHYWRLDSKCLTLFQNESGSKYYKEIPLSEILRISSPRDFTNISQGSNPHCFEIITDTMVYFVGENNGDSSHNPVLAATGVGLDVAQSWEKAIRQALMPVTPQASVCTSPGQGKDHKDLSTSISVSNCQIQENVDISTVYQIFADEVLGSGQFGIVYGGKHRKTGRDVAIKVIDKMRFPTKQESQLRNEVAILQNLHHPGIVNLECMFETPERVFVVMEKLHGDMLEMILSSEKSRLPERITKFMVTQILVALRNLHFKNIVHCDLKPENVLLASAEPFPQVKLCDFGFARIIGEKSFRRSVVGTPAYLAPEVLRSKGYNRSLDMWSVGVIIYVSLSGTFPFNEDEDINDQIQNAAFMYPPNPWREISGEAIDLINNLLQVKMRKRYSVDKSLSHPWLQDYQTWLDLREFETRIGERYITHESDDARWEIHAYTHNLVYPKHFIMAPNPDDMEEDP
In short: as §1

[6] = biological target: T6, panel of 60 human kinases (Homo sapiens, UniProt P49759); conditions: CLK1; 0.1 μM; 10 μM ATP; read-out: % Enzyme Activity (relative to DSMO controls)
T6 construct: purchased Reaction Biology Corp
T6 sequence (P49759 whole entry): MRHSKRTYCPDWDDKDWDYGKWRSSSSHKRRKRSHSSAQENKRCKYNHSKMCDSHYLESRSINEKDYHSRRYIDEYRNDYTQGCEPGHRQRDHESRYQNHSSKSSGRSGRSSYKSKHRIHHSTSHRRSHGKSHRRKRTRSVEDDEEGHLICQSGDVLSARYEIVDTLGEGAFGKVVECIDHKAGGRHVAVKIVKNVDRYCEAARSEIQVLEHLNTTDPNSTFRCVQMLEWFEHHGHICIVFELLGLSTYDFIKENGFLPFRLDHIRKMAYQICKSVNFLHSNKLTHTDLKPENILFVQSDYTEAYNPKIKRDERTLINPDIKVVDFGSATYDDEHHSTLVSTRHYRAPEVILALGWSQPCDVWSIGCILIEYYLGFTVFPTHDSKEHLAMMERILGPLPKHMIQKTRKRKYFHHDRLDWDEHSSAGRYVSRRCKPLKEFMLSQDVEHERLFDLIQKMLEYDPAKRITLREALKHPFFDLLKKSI
In short: as §1

[7] = biological target: T7, panel of 60 human kinases (Homo sapiens, UniProt Q15759); conditions: P38b/MAPK11; 0.1 μM; 10 μM ATP; read-out: % Enzyme Activity (relative to DSMO controls)
T7 construct: purchased Reaction Biology Corp
T7 sequence (Q15759 whole entry): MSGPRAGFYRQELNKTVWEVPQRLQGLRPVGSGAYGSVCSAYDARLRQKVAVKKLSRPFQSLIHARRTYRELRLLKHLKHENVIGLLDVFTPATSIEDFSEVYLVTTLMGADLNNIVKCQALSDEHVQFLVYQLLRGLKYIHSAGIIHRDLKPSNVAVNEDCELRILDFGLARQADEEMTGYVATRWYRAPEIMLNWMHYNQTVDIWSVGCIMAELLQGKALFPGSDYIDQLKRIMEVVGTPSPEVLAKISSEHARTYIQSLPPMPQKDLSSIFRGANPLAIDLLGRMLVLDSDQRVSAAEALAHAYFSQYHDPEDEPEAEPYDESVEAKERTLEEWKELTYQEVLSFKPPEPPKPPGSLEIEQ
In short: as §1

[8] = biological target: T8, panel of 60 human kinases (Homo sapiens, UniProt Q13470); conditions: TNK1; 0.1 μM; 10 μM ATP; read-out: % Enzyme Activity (relative to DSMO controls)
T8 construct: purchased Reaction Biology Corp
T8 sequence (Q13470 1-666): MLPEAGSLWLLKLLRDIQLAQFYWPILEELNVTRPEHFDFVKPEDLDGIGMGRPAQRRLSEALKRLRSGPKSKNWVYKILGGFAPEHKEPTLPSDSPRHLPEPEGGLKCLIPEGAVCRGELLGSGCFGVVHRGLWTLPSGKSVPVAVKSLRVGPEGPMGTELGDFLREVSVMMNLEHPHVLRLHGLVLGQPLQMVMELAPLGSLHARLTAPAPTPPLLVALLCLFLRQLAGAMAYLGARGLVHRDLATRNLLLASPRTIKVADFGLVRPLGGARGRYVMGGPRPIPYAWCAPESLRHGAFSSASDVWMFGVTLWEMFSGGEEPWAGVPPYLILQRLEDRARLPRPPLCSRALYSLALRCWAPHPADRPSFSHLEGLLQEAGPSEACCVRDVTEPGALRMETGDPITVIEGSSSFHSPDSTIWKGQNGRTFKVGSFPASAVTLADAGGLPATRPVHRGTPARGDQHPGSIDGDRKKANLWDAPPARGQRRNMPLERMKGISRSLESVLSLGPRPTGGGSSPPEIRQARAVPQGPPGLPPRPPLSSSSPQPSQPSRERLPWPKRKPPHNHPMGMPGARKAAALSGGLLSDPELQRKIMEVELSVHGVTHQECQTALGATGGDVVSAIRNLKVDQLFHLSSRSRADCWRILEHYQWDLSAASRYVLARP
In short: as §1

[9] = biological target: T9, panel of 60 human kinases (Homo sapiens, UniProt P35916); conditions: FLT4/VEGFR3; 0.1 μM; 10 μM ATP; read-out: % Enzyme Activity (relative to DSMO controls)
T9 construct: purchased Reaction Biology Corp
T9 sequence (P35916 25-1363): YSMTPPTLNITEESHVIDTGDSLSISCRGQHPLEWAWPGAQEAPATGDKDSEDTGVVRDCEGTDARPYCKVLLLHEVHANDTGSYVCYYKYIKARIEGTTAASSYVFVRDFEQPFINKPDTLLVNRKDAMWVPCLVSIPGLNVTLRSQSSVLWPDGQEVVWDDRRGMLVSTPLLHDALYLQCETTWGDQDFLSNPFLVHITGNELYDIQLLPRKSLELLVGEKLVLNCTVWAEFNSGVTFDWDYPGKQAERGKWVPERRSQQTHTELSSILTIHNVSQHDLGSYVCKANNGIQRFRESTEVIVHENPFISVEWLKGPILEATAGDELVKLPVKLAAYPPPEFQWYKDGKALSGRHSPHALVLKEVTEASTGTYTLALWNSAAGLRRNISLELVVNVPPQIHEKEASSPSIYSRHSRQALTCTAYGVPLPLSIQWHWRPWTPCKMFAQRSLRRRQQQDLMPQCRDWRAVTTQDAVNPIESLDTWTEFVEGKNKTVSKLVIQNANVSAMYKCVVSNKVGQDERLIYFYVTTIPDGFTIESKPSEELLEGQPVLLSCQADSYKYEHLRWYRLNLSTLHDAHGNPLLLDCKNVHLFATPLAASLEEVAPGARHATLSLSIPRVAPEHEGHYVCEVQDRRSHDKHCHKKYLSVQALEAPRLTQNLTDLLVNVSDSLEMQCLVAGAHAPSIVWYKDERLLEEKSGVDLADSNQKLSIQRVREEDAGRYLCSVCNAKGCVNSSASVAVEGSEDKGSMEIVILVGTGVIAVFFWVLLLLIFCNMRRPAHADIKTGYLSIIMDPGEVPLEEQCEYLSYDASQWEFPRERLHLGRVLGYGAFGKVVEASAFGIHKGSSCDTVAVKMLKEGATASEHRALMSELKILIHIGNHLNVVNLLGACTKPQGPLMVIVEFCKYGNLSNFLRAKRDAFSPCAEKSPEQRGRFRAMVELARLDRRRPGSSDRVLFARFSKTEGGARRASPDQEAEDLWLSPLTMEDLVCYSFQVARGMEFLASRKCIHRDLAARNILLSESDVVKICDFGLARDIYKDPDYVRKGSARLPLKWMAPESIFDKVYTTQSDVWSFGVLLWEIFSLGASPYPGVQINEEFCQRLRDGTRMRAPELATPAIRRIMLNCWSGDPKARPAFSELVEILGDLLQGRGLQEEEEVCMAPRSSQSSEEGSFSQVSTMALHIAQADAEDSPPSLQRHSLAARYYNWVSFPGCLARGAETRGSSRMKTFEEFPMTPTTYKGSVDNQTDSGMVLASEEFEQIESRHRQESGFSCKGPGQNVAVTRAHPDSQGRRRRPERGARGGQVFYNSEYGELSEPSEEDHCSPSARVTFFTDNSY
In short: as §1

Compound	remaining activity at 0.1 µM [1] [%]	remaining activity at 0.1 µM [2] [%]	remaining activity at 0.1 µM [3] [%]	remaining activity at 0.1 µM ([4]; CDK6/cyclin D1) [%]	remaining activity at 0.1 µM ([4]; CDK6/cyclin D3) [%]	remaining activity at 0.1 µM [5] [%]	remaining activity at 0.1 µM [6] [%]	remaining activity at 0.1 µM [7] [%]	remaining activity at 0.1 µM [8] [%]	remaining activity at 0.1 µM [9] [%]
CN1CCN(Cc2ccc(-c3cnc4[nH]cc(-c5ccc6[nH]ccc6c5)c4c3)cc2)CC1 [Compound 1, 3-(1H-Indol-5-yl)-5-(4-((4-methylpiperazin-1-yl)methyl)phenyl)-1H-pyrrolo[2,3-b]pyridine, reference compound]	75.3	82.7	99.3	47.2	66.1	16.1	33	104	28.8	34.5
CN1CCN(Cc2ccc(-c3cnc4[nH]cc(-c5cccc(Cl)c5)c4c3)cc2)CC1 [Compound 7ad, 3-(3-Chlorophenyl)-5-(4-((4-methylpiperazin-1-yl)methyl)phenyl)-1H-pyrrolo[2,3-b]pyridine]	88.7	98.2	108	45.8	58.8	17.5	81.2	103	53.5	80.5
CN1CCN(Cc2ccc(-c3cnc4[nH]cc(-c5cnn(Cc6ccccc6)c5)c4c3)cc2)CC1 [Compound 7ah, 3-(1-Benzyl-1H-pyrazol-4-yl)-5-(4-((4-methylpiperazin-1-yl)methyl)phenyl)-1H-pyrrolo[2,3-b]pyridine]	18.6	91.4	106	28.6	33.2	7.09	3.41	101	37.8	34
Cc1nn(C)c(C)c1-c1c[nH]c2ncc(-c3ccc(CN4CCN(C)CC4)cc3)cc12 [Compound 7ai, 5-(4-((4-Methylpiperazin-1-yl)methyl)phenyl)-3-(1,3,5-trimethyl-1H-pyrazol-4-yl)-1H-pyrrolo[2,3-b]pyridine]	77.7	97.5	106	47.9	76	19.2	66.4	104	63.6	60.3
CN1CCN(Cc2ccc(-c3cnc4[nH]cc(-c5ccccc5Cl)c4c3)cc2)CC1 [Compound 7as, 3-(2-Chlorophenyl)-5-(4-((4-methylpiperazin-1-yl)methyl)phenyl)-1H-pyrrolo[2,3-b]pyridine]	74.6	77.9	109	15.6	36.1	18.8	44.6	99.5	33.9	23.2
COc1ccccc1-c1c[nH]c2ncc(-c3ccc(CN4CCN(C)CC4)cc3)cc12 [Compound 7at, 3-(2-Methoxyphenyl)-5-(4-((4-methylpiperazin-1-yl)methyl)phenyl)-1H-pyrrolo[2,3-b]pyridine]	102	96.4	103	7.23	46	50.2	78.4	97.7	38.4	79.8
CN1CCN(Cc2ccc(-c3cnc4[nH]cc(-c5ccc6c(c5)OCCO6)c4c3)cc2)CC1 [Compound 7d, 3-(2,3-Dihydrobenzo[b][1,4]dioxin-6-yl)-5-(4-((4-methylpiperazin-1-yl)methyl)phenyl)-1H-pyrrolo[2,3-b]pyridine]	52.2	93.2	108	15.1	52.3	6.42	1.66	101	44.3	39
CN1CCN(Cc2ccc(-c3cnc4[nH]cc(-c5ccncc5)c4c3)cc2)CC1 [Compound 7n, 5-(4-((4-Methylpiperazin-1-yl)methyl)phenyl)-3-(pyridin-4-yl)-1H-pyrrolo[2,3-b]pyridine]	85.5	100	114	23.4	51.8	42.3	34.9	101	87.8	66
CN1CCN(Cc2ccc(-c3cnc4[nH]cc(-c5ccoc5)c4c3)cc2)CC1 [Compound 7w, 3-(Furan-3-yl)-5-(4-((4-methylpiperazin-1-yl)methyl)phenyl)-1H-pyrrolo[2,3-b]pyridine]	76.8	93.1	116	58.5	68.4	32.8	81.9	99.3	73.2	64.6
